1 compound from patent US20240002350A1, “PROTEIN AND LIPID THERAPEUTIC TARGETS” (UNIVERSITY OF PITTSBURGH-OF THE COMMONWEALTH SYSTEM OF …, priority 2020, published 2024) can be followed below.

Each structure is given as a SMILES string. pEC50: −log10 of the molar value. Like-named read-outs stand apart in the source and are kept apart here.

In assay [1] the test system is 15LOX/PEBP1. In words: Potency of 15LOX/PEBP1 inhibitors with anti-ferroptotic effect (Table 1). It is filed as cell-based. The source says:
Development and testing of new compounds that inhibit 15LOX/PEBP1 complex activity. A combination of computational and experimental studies are used. […] Computer modeling considers specific features of organization of 15LOX/PEBP1 complexes and positioning of AA-PE as well as regio-specific oxygenation of AA-residues at 15th carbon. […] It has been shown that: i) binding interface of 15LOX in 15LOX/PEBP1 complex includes a helix on 15LOX (α2) and kinase binding epitope (D144, H145, R146) on PEBP1 (FIG. 8); and ii) interfacial interactions play a pivotal role in allosterically altering conformational dynamics of 15LOX in complex, and its substrate specificity. Analysis of change in access to catalytic site upon PEBP1 binding, using elastic network models indicates needed sites at 15LOX/PEBP1 binding interface. Dynamics simulations are also performed, for 15LOX alone and 15LOX/PEBP1 complex. An effective inhibitor, NCG-01, with in vivo activity has been indicated. Several other 15LOX/PEBP1 inhibitors with anti-ferroptotic effect (FIG. 9) have been identified. To test the effectiveness of compounds identified from the computational screen, RSL3 and mechanical stretch models with LDH and PI assays as a primary outcome are performed. The compounds that inhibit cell death by at least 50% are then evaluated for their effects on AA-PE and AA oxidation by 15LOX/PEBP1 complex and 15LOX alone, respectively, by LC-MS. Evaluation of the effect of compounds in suppressing AA-PE-OOH formation in cells upon proferroptotic stimuli is also performed.

For assay [2], the system named is ferroptosis triggered by RSL3 (GPX4 inhibition) or Erastin (GSH depletion) in cells. The experiment in a line: Suppression of ferroptosis triggered by RSL3 or Erastin in cells. It is filed as cell-based. To be noted: read-out: half maximal activity, suppression of ferroptosis. The protocol: (§1) FIGS. 7A-7C show 15LOX/[…] complex inhibitor, NCGC00599973-01.
FER.1 (500 nM) is positive control. Insert: Chemical formula of two of the compounds.
(§2) It was established that a change in substrate specificity of 15LOX is achieved upon complex formation with PEBP1 whereby structural rearrangements are mainly responsible for the selectivity and specificity leading to the formation of 15-HOO-AA-PE as the oxidation product. Thus, new selective anti-ferroptotic inhibitors of 15LOX/PEBP1 complex were designed. These inhibitors should not interfere with oxidation of free AA, DPA, DHA. […] The compound is a poor inhibitor of 15LOX alone with free AA as a substrate. […] Site 1 is at 15LOX/PEBP1 binding interface (binding energy −10.1 kcal/mol) and site 2 is at catalytic site (binding energy −8.9 kcal/mol).

Assay [3] has as its system 15LOX alone. The experiment in a line: Inhibition of 15LOX alone with free AA as a substrate. To be noted: 20 μM. It is filed as biochemical.
Description: as §2
(§3) Development and testing of new compounds that inhibit 15LOX/PEBP1 complex activity. A combination of computational and experimental studies are used. […] Computer modeling considers specific features of organization of 15LOX/PEBP1 complexes and positioning of AA-PE as well as regio-specific oxygenation of AA-residues at 15th carbon. […] The compounds that inhibit cell death by at least 50% are then evaluated for their effects on AA-PE and AA oxidation by 15LOX/PEBP1 complex and 15LOX alone, respectively, by LC-MS. […]

Assay [4] concerns 15LOX/PEBP1 complex. The experiment in a line: Inhibition of activity of 15LOX/PEBP1 complex. It is filed as biochemical.
Description: as §2, §3

In assay [5] the test system is HOO-AA-PE. In words: RSL3-induced accumulation of pro-ferroptotic HOO-AA-PE in vitro. It is filed as cell-based.
Description: as §1, §2

The subject of assay [6] is whole body irradiation (9.25Gy). In words: Survival after whole body irradiation. It is filed as in vivo. To be noted: oxidant injury induced by ionizing radiation.
Description: as §1, §2

Take `Fc1cccc(-n2cc(-c3ccccc3)nc2SCc2ccc(C(F)(F)F)cc2)c1` [Compound 12, 1-(3-fluorophenyl)-4-phenyl-2-((4-(trifluoromethyl)benzyl)thio)-1H-imidazole]: in assay [1], the Potency entry is recorded as “++ (++ = 101-1000 nM)”. The pEC50 in assay [2] (ferroptosis triggered by Erastin (GSH depletion) in cells) is 6.85; in assay [2] (ferroptosis triggered by RSL3 (GPX4 inhibition) in cells), 6.76. In addition, the “inhibition of 15LOX alone” value in assay [3] is on record as around 4.5%. Further, the “activity of 15LOX/PEBP1 complex” value in assay [4] is recorded as “inhibits activity”. In assay [5], the “RSL3-induced accumulation of pro-ferroptotic HOO-AA-PE” value is “suppresses”. In addition, the survival result in assay [6] is “improves survival”.
